IC50 data for 24 compounds are collected here from patent publication US11447465B2, “Pharmaceutical compounds for treatment of medical disorders” (Achillion Pharmaceuticals, Inc., priority 2017, dated 2022).

Like-named read-outs stand apart in the source and are kept apart here.

This assay addresses Human Factor D (Homo sapiens (Human), UniProt P00746). The assay can be described thus: Human Factor D Assay. In kind it is biochemical. Summed up:
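Serum-purified human factor D (80 nM final) preincubated with compound 5 min at room temperature in 50 mM Tris, 1 M NaCl, pH 7.5. Z-L-Lys-SBzl and DTNB added at 100 μM each; A405 followed every 30 s for 30 min. IC50 by nonlinear regression of rates.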

[1] abbreviates: Table 5, Human Factor D 80 nM, substrate Z-L-Lys-SBzl, read-out: IC50 (Stars).
[2] abbreviates: Table 6, Human Factor D 80 nM, substrate Z-L-Lys-SBzl, read-out: IC5 (Stars).

Chain of Human Factor D (P00746 26-253): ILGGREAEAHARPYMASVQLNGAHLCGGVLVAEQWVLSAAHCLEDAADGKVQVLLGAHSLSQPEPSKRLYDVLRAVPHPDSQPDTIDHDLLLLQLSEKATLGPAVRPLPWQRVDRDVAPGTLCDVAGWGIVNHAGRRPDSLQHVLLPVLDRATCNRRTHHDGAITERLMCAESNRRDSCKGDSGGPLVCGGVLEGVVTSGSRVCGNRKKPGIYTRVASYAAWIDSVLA

On to `CC(=O)c1nn(CC(=O)N2[C@H](C(=O)Nc3cccc(Br)n3)C[C@@]3(C)C[C@@H]23)c2cc(S(C)(=N)=O)ccc12` (stereo partly drawn) [Compound T-6, (1R,3S,5R)-2-(2-(3-acetyl-6-(S-methylsulfonimidoyl)-1H-indazol-1-yl)acetyl)-N-(6-bromopyridin-2-yl)-5-methyl-2-azabicyclo[3.1.0]hexane-3-carboxamide], for which the IC50 under setting [1] is less than 1 µM.
With `Cc1ncc(-c2cc(CC(=O)N3[C@H](C(=O)Nc4nc(Br)ccc4C)C[C@@]4(C)C[C@@H]34)cc(-c3cnc(O)nc3)c2)cn1` [Compound T-117, (1R,3S,5R)-N-(6-bromo-3-methylpyridin-2-yl)-2-(2-(3-(2-hydroxypyrimidin-5-yl)-5-(2-methylpyrimidin-5-yl)phenyl)acetyl)-5-methyl-2-azabicyclo[3.1.0]hexane-3-carboxamide], the IC50 (Table 7, read-out: IC5 (Stars)) is more than 10 µM.
Consider `Cc1ccc(Br)nc1NC(=O)C1CC2(C)CC2N1C(=O)Cn1nc(NCCC(=O)O)c2ccncc21` (stereo not drawn) [Compound T-90, 3-((1-(2-(3-((6-bromo-3-methylpyridin-2-yl)carbamoyl)-5-methyl-2-azabicyclo[3.1.0]hexan-2-yl)-2-oxoethyl)-1H-pyrazolo[3,4-c]pyridin-3-yl)amino)propanoic acid], for which the IC50 (Table 7, read-out: IC5 (Stars)) is more than 10 µM.
Take `CC(=O)c1nn(CC(=O)N2[C@H](C(=O)Nc3nc(Br)ccc3C)C[C@@]3(C)C[C@@H]23)c2ccc(O[C@@H]3CO[C@H]4[C@@H]3OC[C@H]4O)cc12` [Compound T-52, (1R,3S,5R)-2-(2-(3-acetyl-5-(((3R,3aR,6R,6aR)-6-hydroxy-hexahydrofuro[3,2-b]furan-3-yl)oxy)-1H-indazol-1-yl)acetyl)-N-(6-bromo-3-methylpyridin-2-yl)-5-methyl-2-azabicyclo[3.1.0]hexane-3-carboxamide]: the IC50 under setting [2] was less than 1 µM.
Consider `CC(=O)c1nn(CC(=O)N2[C@H](C(=O)Nc3nc(Br)ccc3C)C[C@@]3(CNC(=O)CC(F)(F)F)C[C@@H]23)c2c(C)cccc12` [Compound T-35, (1R,3S,5R)-2-(2-(3-acetyl-7-methyl-1H-indazol-1-yl)acetyl)-N-(6-bromo-3-methylpyridin-2-yl)-5-((3,3,3-trifluoropropanamido)methyl)-2-azabicyclo[3.1.0]hexane-3-carboxamide], for which the IC50 under setting [1] was less than 1 µM.
Take `Cc1ncc(-c2cc(CC(=O)N3C[C@H](F)C[C@H]3C(=O)Nc3cccc(-c4ccccc4Cl)c3F)cc(-c3cnc(O)nc3)c2)cn1` [Compound T-118, (2S,4R)-N-(2′-chloro-2-fluoro-[1,1′-biphenyl]-3-yl)-4-fluoro-1-(2-(3-(2-hydroxypyrimidin-5-yl)-5-(2-methylpyrimidin-5-yl)phenyl)acetyl)pyrrolidine-2-carboxamide]: the IC50 (Table 7, read-out: IC5 (Stars)) was more than 10 µM.
On to `CC(=O)c1cc(C(N)=O)n(CC(=O)N2C[C@H](F)C[C@H]2C(=O)Nc2cccc(Br)n2)n1` [Compound T-23, 3-acetyl-1-(2-((2S,4R)-2-((6-bromopyridin-2-yl)carbamoyl)-4-fluoropyrrolidin-1-yl)-2-oxoethyl)-1H-pyrazole-5-carboxamide], for which the IC50 under setting [1] is less than 1 µM.
On the same count and under the same terms, the result for `CC(=O)c1cn(CC(=O)N2[C@H](C(=O)NCc3cccc(Cl)c3F)C[C@@]3(CN4CCN(C)CC4)C[C@@H]23)c2cc(P(=O)(O)O)ccc12` [Compound T-44, (3-acetyl-1-(2-((1R,3S,5R)-3-((3-chloro-2-fluorobenzyl)carbamoyl)-5-((4-methylpiperazin-1-yl)methyl)-2-azabicyclo[3.1.0]hexan-2-yl)-2-oxoethyl)-1H-indol-6-yl)phosphonic acid] reads less than 1 µM.
For `Cc1ccc(Br)nc1NC(=O)[C@@H]1C[C@@]2(C)C[C@H]2N1C(=O)Cc1ccc2[nH]nc(Cl)c2c1` [Compound T-155, (1R,3S,5R)-N-(6-bromo-3-methylpyridin-2-yl)-2-(2-(3-chloro-1H-indazol-5-yl)acetyl)-5-methyl-2-azabicyclo[3.1.0]hexane-3-carboxamide], the IC50 (Table 7, read-out: IC5 (Stars)) fell in the range of 1 to 10 µM.
As to `CC(=O)c1nn(CC(=O)N2C[C@H](F)C[C@H]2C(=O)Nc2cccc(Br)n2)c2cc(/S(C)=N/C(=O)C(F)(F)F)ccc12` (stereo partly drawn) [Compound T-4, (2S,4R)-1-(2-(3-acetyl-6-((E)-S-methyl-N-(2,2,2-trifluoroacetyl)sulfinimidoyl)-1H-indazol-1-yl)acetyl)-N-(6-bromopyridin-2-yl)-4-fluoropyrrolidine-2-carboxamide], the IC50 under setting [1] was less than 1 µM.
As to `CC(=O)c1nn(CC(=O)N2[C@H](C(=O)Nc3nc(Br)ccc3C)C[C@@]3(C)C[C@@H]23)c2cc(OCP(=O)(O)O)ccc12` [Compound T-132, (((3-acetyl-1-(2-((1R,3S,5R)-3-((6-bromo-3-methylpyridin-2-yl)carbamoyl)-5-methyl-2-azabicyclo[3.1.0]hexan-2-yl)-2-oxoethyl)-1H-indazol-6-yl)oxy)methyl)phosphonic acid], the IC50 (Table 7, read-out: IC5 (Stars)) was less than 1 µM.
Consider `C/S(COc1ccc2c(C(N)=O)nn(CC(=O)N3C[C@H](F)C[C@H]3C(=O)Nc3cccc(-c4ccccc4Cl)c3F)c2c1)=N\C#N` (stereo partly drawn) [Compound T-61], for which, under setting [2], the IC50 is less than 1 µM.
In the case of `COc1cc(CC(=O)N2[C@H](C(=O)Nc3nc(Br)ccc3C)C[C@@]3(C)C[C@@H]23)cc(-c2cnc(O)nc2)c1` [Compound T-101, (1R,3S,5R)-N-(6-bromo-3-methylpyridin-2-yl)-2-(2-(3-(2-hydroxypyrimidin-5-yl)-5-methoxyphenyl)acetyl)-5-methyl-2-azabicyclo[3.1.0]hexane-3-carboxamide], the IC50 (Table 7, read-out: IC5 (Stars)) is less than 1 µM.
`NC(=O)c1nn(CC(=O)N2C[C@H](F)C[C@H]2C(=O)Nc2cccc(Br)n2)cc1/C=C/C(=O)NC1CC1` [Compound T-28, 1-(2-((2S,4R)-2-((6-bromopyridin-2-yl)carbamoyl)-4-fluoropyrrolidin-1-yl)-2-oxoethyl)-4-((E)-3-(cyclopropylamino)-3-oxoprop-1-en-1-yl)-1H-pyrazole-3-carboxamide]: the IC50 under setting [1] lay in the range of 1 to 10 µM.
On to `CC(=O)c1nn(CC(=O)N2C(C(=O)Nc3nc(Br)ccc3C)C[C@@]3(Cn4cc(C5CC5)nn4)C[C@@H]23)c2cnccc12` (stereo partly drawn) [Compound T-139, (1R,3S,5R)-2-(2-(3-acetyl-1H-pyrazolo[3,4-c]pyridin-1-yl)acetyl)-N-(6-bromo-3-methylpyridin-2-yl)-5-((4-cyclopropyl-1H-1,2,3-triazol-1-yl)methyl)-2-azabicyclo[3.1.0]hexane-3-carboxamide], for which, where the note is “Table 7, read-out: IC5 (Stars)”, the IC50 was less than 1 µM.
For the compound `CC(=O)c1nn(CC(=O)N2C[C@H]3C[C@H]3[C@H]2C(=O)Nc2nc(Br)ccc2C2CC2)c2cc(C)sc12` [Compound T-10, (1R,2S,5S)-3-(2-(3-acetyl-5-methyl-1H-thieno[3,2-c]pyrazol-1-yl)acetyl)-N-(6-bromo-3-cyclopropylpyridin-2-yl)-3-azabicyclo[3.1.0]hexane-2-carboxamide], the IC50 under setting [1] is less than 1 µM.
Same read-out and setting: the result for `CC(=O)c1cc(C(=O)NCc2cscn2)n(CC(=O)N2C[C@H](F)C[C@H]2C(=O)Nc2cccc(Br)n2)n1` [Compound T-24, 3-acetyl-1-(2-((2S,4R)-2-((6-bromopyridin-2-yl)carbamoyl)-4-fluoropyrrolidin-1-yl)-2-oxoethyl)-N-(thiazol-4-ylmethyl)-1H-pyrazole-5-carboxamide] reads less than 1 µM; that for `CC(=O)c1nn(CC(=O)N2C[C@H](F)C[C@H]2C(=O)Nc2cccc(Br)n2)c2cc(S(C)(=N)=O)ccc12` (stereo partly drawn) [Compound T-5, (2S,4R)-1-(2-(3-acetyl-6-(S-methylsulfonimidoyl)-1H-indazol-1-yl)acetyl)-N-(6-bromopyridin-2-yl)-4-fluoropyrrolidine-2-carboxamide], less than 1 µM.
As for `Cc1ncc(-c2cc(C#N)cc(CC(=O)N3[C@H](C(=O)Nc4nc(Br)ccc4C)C[C@@]4(C)C[C@@H]34)c2)cn1` [Compound T-115, (1R,3S,5R)-N-(6-bromo-3-methylpyridin-2-yl)-2-(2-(3-cyano-5-(2-methylpyrimidin-5-yl)phenyl)acetyl)-5-methyl-2-azabicyclo[3.1.0]hexane-3-carboxamide], the IC50 (Table 7, read-out: IC5 (Stars)) is 1 to 10 µM.
For `Cc1ccc(Br)nc1NC(=O)[C@@H]1C[C@@]2(C)C[C@H]2N1C(=O)Cc1ccc2[nH]nc(C(N)=O)c2c1` [Compound T-98, 5-(2-((1R,3S,5R)-3-((6-bromo-3-methylpyridin-2-yl)carbamoyl)-5-methyl-2-azabicyclo[3.1.0]hexan-2-yl)-2-oxoethyl)-1H-indazole-3-carboxamide], the IC50 (Table 7, read-out: IC5 (Stars)) is more than 10 µM.
On to `CC(=O)O[C@@H]1CO[C@H]2[C@@H]1OC[C@H]2Oc1ccc2c(c1)c(C(C)=O)nn2CC(=O)N1C[C@H](F)C[C@H]1C(=O)Nc1nc(Br)ccc1C` [Compound T-53, (3R,3aR,6R,6aR)-6-((3-acetyl-1-(2-((2S,4R)-2-((6-bromo-3-methylpyridin-2-yl)carbamoyl)-4-fluoropyrrolidin-1-yl)-2-oxoethyl)-1H-indazol-5-yl)oxy)hexahydrofuro[3,2-b]furan-3-yl acetate], for which the IC50 under setting [2] is less than 1 µM.
Turning to `Cc1ncc(-c2cc(CC(=O)N3C[C@H](F)C[C@H]3C(=O)Nc3cccc(-c4ccccc4Cl)c3F)cc(OCC(=O)O)c2)cn1` [Compound T-176, 2-(3-(2-((2S,4R)-2-((2′-chloro-2-fluoro-[1,1′-biphenyl]-3-yl)carbamoyl)-4-fluoropyrrolidin-1-yl)-2-oxoethyl)-5-(2-methylpyrimidin-5-yl)phenoxy)acetic acid], for the setting “Table 7, read-out: IC5 (Stars)”, the IC50 lay in the range of 1 to 10 µM.
Regarding `CC(=O)c1nn(CC(=O)N2C[C@H](F)C[C@H]2C(=O)Nc2cccc(Br)n2)c2cc(S(C)(=O)=NC#N)ccc12` (stereo partly drawn) [Compound T-11], under setting [1], the IC50 was less than 1 µM.
Same read-out and setting: the result for `CC(=O)c1cc(C(=O)N2CCC(F)(F)C2)n(CC(=O)N2C[C@H](F)C[C@H]2C(=O)Nc2cccc(Br)n2)c1` [Compound T-18, (2S,4R)-1-(2-(4-acetyl-2-(3,3-difluoropyrrolidine-1-carbonyl)-1H-pyrrol-1-yl)acetyl)-N-(6-bromopyridin-2-yl)-4-fluoropyrrolidine-2-carboxamide] reads more than 10 µM.
